The text below walks through data of patent US12653794B2, “Dextromethorphan transdermal delivery device” (SHINKEI THERAPEUTICS, INC., priority 2017, dated 2026).

The nature of series [1]: Transdermal flux test, Franz Diffusion Cell method. It is filed as in vitro ADME, human. On the procedure: Transdermal flux of Dextromethorphan from the patch was tested using human cadaver epidermis by Franz Diffusion Cell method.
Patch formulations A, B, and C prepared in Example 1 were used for a skin permeation study using the following protocol: • Franz cell assembly—Logan Instruments (6-cell unit) • Each cell has 12 mL volume, 1.5 cm diameter orifice • Receptor medium is a phosphate buffer solution (PBS) pH 7.4 • Cell temperature is maintained at 37° C. • Sampling method: take 1.5 mL for HPLC assay, empty cell, replace with fresh medium • Sampling time points: 4, 8, 12, 24 and 48 hours • Cadaver skin is used and is obtained from New York Fire Fighters Skin Bank. Skin No. MM07116, While, person, skin site: left posterior leg. • Assay method for media: HPLC based.
Formulations D0-D2 were also tested for their in vitro flux characteristics following the same protocol as described in Example 2.

For series [2] the following is noted: human, in vivo; cited from earlier work.
A short description of series [3]: Transdermal delivery rate without enhancer. The source says:
The unpredictability of transdermal administration is notorious. […] Structurally and by calculated Log P, these compounds are very similar, such that this difference could not be anticipated. See, U.S. Provisional Appl. No. 62/568,028, filed Oct. 4, 2017, the content of which is incorporated by reference in its entirety.

As for `CCCCCCCCCCCCCC(=O)OC(C)C` [IPM, isopropyl myristate], in series [1], the “effect on flux of dextromethorphan” value is reported as “significant enhancement of flux was observed” and the “effect on skin permeation of DXM” value was “significantly enhance the skin permeation of DXM”.

For the molecule `COc1ccc2c(c1)[C@]13CCCC[C@@H]1[C@H](C2)N(C)CC3` [dextromethorphan], the “adverse reactions reported with the individual component” value in series [2] is “drowsiness, dizziness, nervousness or restlessness, nausea, vomiting, and stomach pain”.

For the molecule `C[C@]12CC[C@H]3[C@@H](CCC4=CC(=O)CC[C@@]43C)[C@@H]1CC[C@@H]2O` [testosterone], the “transdermal delivery rate relative to beta estradiol” value in series [3] is reported as “three orders of magnitude higher”.
